Experimental data: patent publication US20030225081A1, “Pyridazinones and triazinones and medicinal use thereof” (priority 2000, published 2003)

Tested on: AMPA receptor
Assay: Suppressing action to calcium influx into nerve cells induced by AMPA
Assay type: cell-based
Conditions: Fura2-AM, stimulation with 2 μM AMPA, primary culture of rat embryo cerebral cortex nerve cells, 1 μM MK-801
Source text: Suppressing Action to Calcium Influx into Nerve Cells Induced by AMPA
The suppressing action of the compounds of the present invention to calcium influx into nerve cells induced by AMPA was investigated using the primary culture system of nerve cells of cerebral cortex of embryo of rat.
Cerebral cortex was cut out from the brain of rat of gestational 18 days and treated with trypsin and DNase to disperse the cells. The cells were flown by MEM containing 10% of serum, sown in a culture bottle and astrocytes were proliferated. The astrocytes were re-dispersed by trypsin and sown in a 96-well plate. After incubation for one week, it was confirmed that the astrocytes covered all over the bottom and then the nerve cells of cerebral cortex which was dispersed by the above method were sown thereupon. After incubation for 24 hours, the medium was changed, the incubation was carried out for one week and, after that, the medium was changed to that containing 1 μM of MK-801. Nerve cells which were incubated for not shorter than 8 to 10 days were used.
Calcium influx into the cells was measured using Fura2-AM which was a calcium-sensitive fluorescent dye. It was treated in a medium containing Fura2-AM for 1 hour, incorporated into the cells, exchanged to a Tyrode solution containing 1 μM MK-801 and stimulation was carried out using 2 μM AMPA. Change in the amount of calcium flown into the cells were measured as the change in the fluorescent intensity at the exciting wave length of 340/380 nm. […] As the control compound, GYKI52466 (Le Peillet, et al., Brain Res., 571, 115, 1992) was used.

SMILES	IC50
COc1cccc(C2CC(c3ccccn3)=NN(c3ccccc3Br)C2=O)c1 (stereo not shown) [Example 1, 2-(2-Bromophenyl)-4-(3-methoxyphenyl)-6-(2-pyridyl)-4,5-dihydro-3 (2H)-pyridazinone]	100 nM
O=C1C(c2cccc(O)c2)CC(c2ccccn2)=NN1c1ccccc1Br (stereo not shown) [Example 2, 2-(2-Bromophenyl)-4-(3-hydroxyphenyl)-6-(2-pyridyl)-4,5-dihydro-3 (2H)-pyridazinone]	100 nM
O=c1c(-c2cccc(OCCO)c2)cc(-c2ccccn2)nn1-c1ccccc1Br [Example 3, 2-(2-Bromophenyl)-4-[3-(2-hydroxyethoxy)phenyl]-6-(2-pyridyl)-3 (2H)-pyridazinone]	200 nM
N#Cc1ccccc1-n1nc(-c2ccccn2)cc(-c2cccc(OCCO)c2)c1=O [Example 4, 2-(2-Cyanophenyl)-4-[3-(2-hydroxyethoxy)phenyl]-6-(2-pyridyl)-3 (2H)-pyridazinone]	60 nM
COc1ccccc1-c1cc(-c2ccccn2)c(=O)n(-c2ccccc2Br)n1 [Example 5, 2-(2-Bromophenyl)-6-(2-methoxyphenyl)-4-(2-pyridyl)-3 (2H)-pyridazinone]	6700 nM
N#Cc1ccccc1N1N=C2c3ccccc3OCC2C(c2ccccc2)C1=O (stereo not shown) [Example 6, 2-(2-Cyanophenyl)-4-phenyl-2,3,4,4a-tetrahydro-5H-(1)benzopyrano[4,3-c]pyridazin-3-one]	100 nM
N#Cc1ccccc1-n1nc2c(c(-c3ccccc3)c1=O)COc1ccccc1-2 [Example 7, 2-(2-Cyanophenyl)-4-phenyl-2,3-dihydro-5H-(1)benzopyrano[4,3-c]pyridazin-3-one]	200 nM
O=C1C(c2cccnc2)C2COc3ccccc3C2=NN1c1ccccc1I (stereo not shown) [Example 8, 2-(2-Iodophenyl)-4-(3-pyridyl)-2,3,4,4a-tetrahydro-5H-(1)benzopyrano[4,3-c]pyridazin-3-one]	100 nM
O=C1C(C(O)c2ccccn2)CC(c2ccccc2)=NN1c1ccccc1 (stereo not shown) [Example 11, 2,6-Diphenyl-4-(a-hydroxy-2-picolyl)-4,5-dihydro-3 (2H)-pyridazinone]	9900 nM
N#Cc1ccccc1-n1nc(-c2ccccc2)cc(C(=O)NCCN2CCOCC2)c1=O [Example 12, 2-(2-Cyanophenyl)-4-(4-morpholinoethylaminocarbonyl)-6-phenyl-3 (2H)-pyridazinone]	3900 nM
COc1ccccc1C1CC(c2ccccn2)=NN(c2ccccc2Br)C1=O (stereo not shown) [Example 14, 2-(2-Bromophenyl)-4-(2-methoxyphenyl)-6-(2-pyridyl)-4,5-dihydro-3 (2H)-pyridazinone]	200 nM
COc1ccc(C2CC(c3ccccn3)=NN(c3ccccc3Br)C2=O)cc1 (stereo not shown) [Example 15, 2-(2-Bromophenyl)-4-(4-methoxyphenyl)-6-(2-pyridyl)-4,5-dihydro-3 (2H)-pyridazinone]	200 nM
COc1ccc(Br)cc1C1CC(c2ccccn2)=NN(c2ccccc2Br)C1=O (stereo not shown) [Example 16, 2-(2-Bromophenyl)-4-(3-bromo-6-methoxyphenyl)-6-(2-pyridyl)-4,5-dihydro-3 (2H)-pyridazinone]	700 nM
COc1ccccc1C1CC(c2ccccn2)=NN(c2ccccc2I)C1=O (stereo not shown) [Example 17, 2-(2-Iodophenyl)-4-(2-methoxyphenyl)-6-(2-pyridyl)-4,5-dihydro-3 (2H)-pyridazinone]	200 nM
COc1ccccc1C1CC(c2ccccn2)=NN(c2ccccc2)C1=O (stereo not shown) [Example 18, 4-(2-Methoxyphenyl)-2-phenyl-6-(2-pyridyl)-4,5-dihydro-3 (2H)-pyridazinone]	100 nM
O=C1C(c2ccccc2)CC(c2ccccn2)=NN1c1ccccc1Br (stereo not shown) [Example 19, 2-(2-Bromophenyl)-4-phenyl-6-(2-pyridyl)-4,5-dihydro-3 (2H)-pyridazinone]	60 nM
O=C1C(c2ccccc2)CC(c2cccnc2)=NN1c1ccccc1Br (stereo not shown) [Example 20, 2-(2-Bromophenyl)-4-phenyl-6-(3-pyridyl)-4,5-dihydro-3 (2H)-pyridazinone]	100 nM
O=C1C(c2ccccc2)CC(c2ccccc2)=NN1c1ccccn1 (stereo not shown) [Example 21, 4,6-Diphenyl-2-(2-pyridyl)-4,5-dihydro-3 (2H)-pyridazinone]	500 nM
COc1ccccc1C1CC(c2ccccn2)=NN(c2ccccn2)C1=O (stereo not shown) [Example 22, 4-(2-Methoxyphenyl)-2-(2-pyridyl)-6-(2-pyridyl)-4,5-dihydro-3 (2H)-pyridazinone]	2700 nM
N#Cc1ccccc1-c1cc(-c2ccccn2)nn(-c2ccccc2)c1=O [Example 23, 4-(2-Cyanophenyl)-2-phenyl-6-(2-pyridyl)-3 (2H)-pyridazinone]	100 nM

SMILES	IC50
COc1ccccc1C1CC(c2cccnc2)=NN(c2ccccc2Br)C1=O (stereo not shown) [Example 24, 2-(2-Bromophenyl)-4-(2-methoxyphenyl)-6-(3-pyridyl)-4,5-dihydro-3 (2H)-pyridazinone]	60 nM
O=C1C(c2ccccc2Br)CC(c2ccccn2)=NN1c1ccccc1 (stereo not shown) [Example 25, 4-(2-Bromophenyl)-2-phenyl-6-(2-pyridyl)-4,5-dihydro-3 (2H)-pyridazinone]	200 nM
COc1ccccc1N1N=C(c2ccccn2)CC(c2ccccc2)C1=O (stereo not shown) [Example 26, 2-(2-Methoxyphenyl)-4-phenyl-6-(2-pyridyl)-4,5-dihydro-3 (2H)-pyridazinone]	300 nM
O=C1C(c2ccccc2)CC(c2ccccn2)=NN1c1ccccc1[N+](=O)[O-] (stereo not shown) [Example 27, 4-Phenyl-2-(2-nitrophenyl)-6-(2-pyridyl)-4,5-dihydro-3 (2H)-pyridazinone]	40 nM
O=C1C(c2ccccc2)CC(c2ccccn2)=NN1c1ccccc1F (stereo not shown) [Example 28, 2-(2-Fluorophenyl)-4-phenyl-6-(2-pyridyl)-4,5-dihydro-3 (2H)-pyridazinone]	100 nM
O=C1C(c2ccc(O)cc2)CC(c2ccccn2)=NN1c1ccccc1Br (stereo not shown) [Example 30, 2-(2-Bromophenyl)-4-(4-hydroxyphenyl)-6-(2-pyridyl)-4,5-dihydro-3 (2H)-pyridazinone]	200 nM
O=c1c(-c2ccccn2)cc(-c2ccccc2O)nn1-c1ccccc1Br [Example 31, 2-(2-Bromophenyl)-6-(2-hydroxyphenyl)-4-(2-pyridyl)-3 (2H)-pyridazinone]	900 nM
O=c1c(-c2ccccc2O)cc(-c2ccccn2)nn1-c1ccccc1 [Example 32, 4-(2-Hydroxyphenyl)-2-phenyl-6-(2-pyridyl)-3 (2H)-pyridazinone]	100 nM
O=C1C(c2ccccc2O)CC(c2ccccn2)=NN1c1ccccc1 (stereo not shown) [Example 33, 4-(2-Hydroxyphenyl)-2-phenyl-6-(2-pyridyl)-4,5-dihydro-3 (2H)-pyridazinone]	70 nM
O=C1C(c2ccccc2O)CC(c2cccnc2)=NN1c1ccccc1Br (stereo not shown) [Example 34, 2-(2-Bromophenyl)-4-(2-hydroxyphenyl)-6-(3-pyridyl)-4,5-dihydro-3 (2H)-pyridazinone]	300 nM
O=c1c(-c2cccc(OCc3ccccn3)c2)cc(-c2ccccn2)nn1-c1ccccc1Br [Example 37, 2-(2-Bromophenyl)-4-[3-(2-picolyloxyphenyl)]-6-(2-pyridyl)-3 (2H)-pyridazinone]	100 nM
O=C1C(c2ccccc2OS(=O)(=O)C(F)(F)F)CC(c2ccccn2)=NN1c1ccccc1 (stereo not shown) [Example 38, 2-Phenyl-6-(2-pyridyl)-4-(2-trifluoromethylsulfonyloxyphenyl)-4,5-dihydro-3 (2H)-pyridazinone]	400 nM
COc1ccccc1C1CC(c2ccccn2)=NN(c2ccccc2C#N)C1=O (stereo not shown) [Example 39, 2-(2-Cyanophenyl)-4-(2-methoxyphenyl)-6-(2-pyridyl)-4,5-dihydro-3 (2H)-pyridazinone]	50 nM
COc1ccccc1-c1cc(-c2ccccn2)nn(-c2ccccc2C#N)c1=O [Example 40, 2-(2-Cyanophenyl)-4-(2-methoxyphenyl)-6-(2-pyridyl)-3 (2H)-pyridazinone]	100 nM
N#Cc1ccccc1N1N=C(c2ccccn2)CC(c2ccccc2O)C1=O (stereo not shown) [Example 41, 2-(2-Cyanophenyl)-4-(2-hydroxyphenyl)-6-(2-pyridyl)-4,5-dihydro-3 (2H)-pyridazinone]	30 nM
N#Cc1ccccc1-n1nc(-c2ccccn2)cc(-c2ccccc2O)c1=O [Example 42, 2-(2-Cyanophenyl)-4-(2-hydroxyphenyl)-6-(2-pyridyl)-3 (2H)-pyridazinone]	100 nM
N#Cc1ccccc1-n1nc(-c2ccccn2)cc(-c2ccccc2)c1=O [Example 43, 2-(2-Cyanophenyl)-4-phenyl-6-(2-pyridyl)-3 (2H)-pyridazinone]	100 nM
COc1ccc(Br)cc1-c1cc(-c2ccccn2)nn(-c2ccccc2C#N)c1=O [Example 44, 2-(2-Cyanophenyl)-4-(3-bromo-6-methoxyphenyl)-6-(2-pyridyl)-3 (2H)-pyridazinone]	200 nM
N#Cc1ccccc1-c1cc(-c2ccccn2)nn(-c2ccccc2C#N)c1=O [Example 46, 2-(2-Cyanophenyl)-4-(2-cyanophenyl)-6-(2-pyridyl)-3 (2H)-pyridazinone]	300 nM
N#Cc1ccccc1-n1nc(-c2ccccn2)cc(-c2ccccc2Br)c1=O [Example 47, 4-(2-Bromophenyl)-2-(2-cyanophenyl)-6-(2-pyridyl)-3 (2H)-pyridazinone]	200 nM
